Data on one compound can be found in article PMC10783087 (Microbiology Spectrum, 2023).

Common to all, as to format: cell-based
One experiment relates to M. abscessus ATCC 19977. Kind of experiment: In vitro MIC against NTM, microbroth dilution. The settings on record: Mycobacteroides abscessus, ATCC19977, 168 h; 7 days. (In general: Dilution methods test growth across graded concentrations, often in twofold steps.)
In experiment [1] the test system is M. avium ATC 700891 (MAC 101). Kind of experiment: In vitro MIC against NTM, microbroth dilution. The settings on record: Mycobacterium avium, 168 h; 7 days.
Experiment [2] deals with M. avium ATC 700891 (MAC 101) in THP-1 cells. Kind of experiment: Ex vivo (intra-macrophage) activity in infected THP-1 cells, resazurin. How it is done: (§1) THP-1 cells were infected with either M. avium or M. abscessus at an MOI of 10 for 4 h prior to treatment. Following infection, cells were washed twice with PBS to remove non-phagocytosed bacteria. Fresh medium was then added, and cells were treated with concentrations ranging from 64 to 0.24 µg/mL and incubated for 24 h at 37°C with 5% CO2. Following 24 h of treatment, cells were treated with resazurin (0.04 mg/mL) and incubated for an additional 3–5 days. Absorbance was measured for each well at 570 and 600 nm. The percent growth reduction was calculated relative to treated and untreated controls.

The test system of experiment [3] is M. abscessus ATCC 19977 in THP-1 cells. The description is as above. As for the experimental part:
as §1

In brackets after ≈: the same amount, converted by molar mass.

As usually defined, the MIC is the least concentration at which growth counts as inhibited. A higher MIC goes with weaker potency. Take `CC[C@H]1OC(=O)[C@H](C)[C@@H](O[C@H]2C[C@@](C)(OC)[C@@H](O)[C@H](C)O2)[C@H](C)[C@@H](O[C@@H]2O[C@H](C)C[C@H](N(C)C)[C@H]2O)[C@](C)(OC)C[C@@H](C)C(=O)[C@H](C)[C@@H](O)[C@]1(C)O` [Clarithromycin]: the minimal inhibitory concentration (MIC) was determined as 1.4 µM (≈ 1.05 µg/mL) in the experiment on M. abscessus ATCC 19977 and 0.08 µM (≈ 0.0598 µg/mL) in experiment [1]. In addition, the “Ex vivo (>90% inhibition), M. avium ATC 700891 (MAC 101)” value in experiment [2] came to 171 µM. The “Ex vivo (>90% inhibition), M. abscessus ATCC 19977” value in experiment [3] amounted to 86 µM.
